Source: patent US20230000808A1, “COMPOSITIONS AND METHODS EXCLUDING OR WITH REDUCED GLUTAMINE FOR THE TREATMENT OF HEMOGLOBINOPATHIES AND THALASSEMIAS” (AXCELLA HEALTH INC., priority 2019, published 2023)

Assays:
Assay type in all cases: cell-based, human
[1] = system: sickle cell disease patient blood; assay: ROS (DCF fluorescence) in sickle cell disease patient whole blood; settings: both treated with H2O2 and untreated, in DPBS
Method: (§1) Whole blood samples were appropriately diluted in Ca^2+- and Mg^2+-free Dulbecco's phosphate buffered saline (DPBS, Life Technologies) and the concentration of erythrocytes (RBC/mL) was measured on a Cellometer K2 Fluorescent Viability Cell Counter according to the manufacturer's RBC/AOPI protocol (Nexcelom Biosciences).
(§2) Cells were then diluted to 1×10^6 RBC/mL into either prewarmed 37° C. […] 2′-7′-dichlorofluorescin diacetate (DCF, Millipore Sigma), 20 mM in dimethyl sulfoxide (DMSO, Fisher) were added to a working concentration of 100 μM. Cells were incubated with dye for 15 minutes at 37° C., 5% CO2 in a tissue culture incubator, washed once, and resuspended in the 0.9 volumes of the same prewarmed 37° C. buffer with 5 minute spins at 500×g, accel/decal=5 in a swing arm centrifuge (Beckman Coulter). […] Where possible due to solubility constrains, pH-7.4-adjusted stock solutions of amino acids were used. Wells were mixed by pipetting and plates incubated at 37° C., 5% CO2 in a tissue culture incubator for 30 minutes. Optionally, 40 mM H2O2 (Millipore Sigma) freshly prepared in the same buffer was added to bring the concentration to 2 mM, wells mixed by pipetting, and plates were incubated an additional 30, 60, 120, or 240 minutes before fluorescence measurement of ROS signal on a Synergy H4 (BioTek) microplate reader with excitation=488 nm and emission=530 nm, and gain either set to autogain, 75, or 100.

[2] = system: whole blood from healthy controls; assay: ROS (DCF fluorescence) in whole blood of healthy control donors, H2O2-induced; settings: healthy control donors treated with H2O2; dose-responsive
Method: as §1, §2

[3] = system: HLMVEC; assay: META-rank score, composite of VCAM1, ICAM1 and IL6 in the HLMVEC model; settings: HLMVEC + TNF-α; lower score = more optimal; 20x HMDB / 5 mM
Method: The ability of single amino acids and combinations to simultaneously impact these phenotypes was measured by a META-rank score (Tables 17 and 18). META-rank score is a composite measure that considers the optimal impact on all 3 phenotypes (e.g. decrease VCAM1, ICAM1, and IL6) in the HLMVEC model.

[4] = system: IL-6; assay: IL-6 in HLMVEC/TNF-α model (ELISA); settings: for IL-6 expression relative to TNF Control, Mean % Change: HLMVEC/TNF-α model, 24 h, ELISA
Method: (§3) Cells were incubated at 37° C., 5% CO2 in a humidified incubator. Cells were passaged at least 1-2 times in the complete growth medium every 2-3 days until ready to plate for cell culture studies. Once ready for experiment, HLMVECs were seeded at a density of 6K cells per well of the 96 well optical microplates (Thermofisher) in the complete growth medium described above and the plated cells were incubated for 24 hours at 37° C. in a humidified incubator with 5% CO2. […] The values are published in the Human Metabolome Database (Wishart D S, et al., Nucleic Acids Res. 2007 January; 35:[…]-6) which is hereby incorporated by reference in its entirety. The medium was also supplemented with growth factors & antibiotics from EGM2-MV kit (Lonza) except the kit-provided FBS which was substituted with dialyzed FBS (Hyclone). […] Human MCP-1 was measured by ELISA (Human […] DuoSet ELISA, R&D Systems) at 1/70 dilution in 1× Reagent Diluent (Reagent Ancillary Kit 2, R&D Systems). Samples were run in triplicates. […] Samples were run in triplicates. Mean percent change in cytokine levels relative to vehicle are reported herein. Statistical analysis was done using two sample t-test.

[5] = system: sICAM-1; assay: Soluble ICAM-1 in HLMVEC/TNF-α model (Luminex); settings: for sICAM-1 expression relative to TNF Control, Mean % Change: 20×HMDB amino acids, 24 h co-treatment
Method: Cells were incubated at 37° C., 5% CO2 in a humidified incubator. Cells were passaged at least 1-2 times in the complete growth medium every 2-3 days until ready to plate for cell culture studies. Once ready for experiment, HLMVECs were seeded at a density of 6K cells per well of the 96 well optical microplates (Thermofisher) in the complete growth medium described above and the plated cells were incubated for 24 hours at 37° C. in a humidified incubator with 5% CO2. […] The values are published in the Human Metabolome Database (Wishart D S, et al., Nucleic Acids Res. 2007 January; 35:D521-6) which is hereby incorporated by reference in its entirety. The medium was also supplemented with growth factors & antibiotics from EGM2-MV kit (Lonza) except the kit-provided FBS which was substituted with dialyzed FBS (Hyclone). […]). […] were run in duplicate and data was normalized to corresponding TNF-α control for respective treatments as specified in the tables. Mean percent change in level of adhesion markers are reported herein. Statistical analysis was done using two sample t-test.

[6] = system: MCP-1; assay: MCP-1 in HLMVEC/TNF-α model (ELISA); settings: for MCP-1 expression relative to TNF Control, Mean % Change: 20×HMDB amino acids, 24 h co-treatment
Method: as §3

Row | SMILES | ROS measured in whole blood [1] | ROS measured in whole blood [2] | Meta-Rank (Table 18) [3] | Metarank (Table 17) [3] | IL-6 expression relative to TNF Control, Mean % Change ([4]; TNF Conc 0.5 ng/mL) [%] | IL-6 expression relative to TNF Control, Mean % Change ([4]; TNF Conc 25 ng/mL) [%] | lowering IL-6 ([4]; either TNF-α group) | sICAM-1 levels ([5]; 0.5 ng/mL TNF-α (low), 20×HMDB, 24 h) | sICAM-1 expression relative to TNF Control, Mean % Change ([5]; TNF Conc 0.5 ng/mL) [%] | sICAM-1 expression relative to TNF Control, Mean % Change ([5]; TNF Conc 25 ng/mL) [%] | sICAM-1 level increased by ([5]; TNF-α 25 ng/mL, 20×HMDB, 24 h) [%] | MCP-1 expression relative to TNF Control, Mean % Change ([6]; TNF Conc 0.5 ng/mL) [%] | MCP-1 expression relative to TNF Control, Mean % Change ([6]; TNF Conc 25 ng/mL) [%] | MCP-1 level reduction relative to the controls ([6]; both TNF-α treatment groups) [%]
1 | CC(=O)N[C@@H](CS)C(=O)O [N-Acetyl Cysteine, N-acetylcysteine] | reduced | reduced | 4 | 6 |  |  |  |  |  |  |  |  |  | 
2 | NC(=O)CC[C@H](N)C(=O)O [Glutamine, L-glutamine] |  |  |  |  | −1.168 | 14.3622 | largely ineffective | failed to reduce | 5.573 | 142.4986 | 142 | −11.673 | −12.1569 | ~12
